Literature values in patent US20050281872A1, “Enhanced compliance antiviral medicaments and methods of manufacture and use” (priority 2004, published 2005).

Assays:
[1] = taking antacids containing magnesium, aluminum, and simethicone
[2] = ribavirin powder
[3] = patients receiving ribavirin antiviral therapy

Molecule	solubility in alcohol (alcohol)	solubility in water (water)	effectiveness in treating hepatitis C (hepatitis C virus (HCV); ribavirin alone, without interferon)	decrease in available ribavirin [1]	dissolution time in water [2]	patients requiring a reduction in dose or discontinuation of therapy because of side effects [3]	patients who responded positively (hepatitis C virus (HCV); high dose of interferon for six months)
NC(=O)c1ncn([C@@H]2O[C@H](CO)[C@@H](O)[C@H]2O)n1 [ribavirin]	only sparingly soluble	freely soluble	not effective	14%	almost instantaneous	up to 20%	–
interferon	–	–	–	–	–	–	nearly half
